The values below come from US8906898B1, “Solid forms of ceftolozane” (Calixa Therapeutics, Inc., priority 2013, dated 2014).

Structures are written as SMILES. Counter-ions that a name gives are not always drawn.

Data set [1] can be described thus: Gravimetric dynamic vapour sorption (moisture sorption/desorption, hygroscopicity). Format: physicochemical. Conditions: 25° C. The protocol: Gravimetric dynamic vapor sorption data (FIG. 5) was obtained using a SMS DVS Intrinsic moisture sorption analyser, controlled by DVS Intrinsic Control software v1.0.0.30. The sample temperature was maintained at 25° C. by the instrument controls. The humidity was controlled by mixing streams of dry and wet nitrogen. The relative humidity was measured by a calibrated Rotronic probe, located near the sample. The weight change of the sample as a function of % RH was constantly monitored by the microbalance (accuracy ±0.005 mg). Approximately 40 mg of sample was placed in a tared mesh stainless basket under ambient conditions. Weight reference was established at the start of an experiment. Moisture sorption isotherm parameters were described as below: [table] The moisture sorption/desorption property of crystalline cefolozane sulfate form 2 is depicted in FIG. 5. A reversible hysteresis associated with around 23% w/w water between 0% and 90% relative humidity (RH) was observed. The DVS isotherm in FIG. 5 is consistent with the presence of two crystalline forms that can be interconverted as function of relative humidity. The presence of ceftolozane sulfate solid Form 1 and ceftolozane sulfate solid Form 2 in the sample tested to obtain the DVS isotherm in FIG. 5 was confirmed by a variable humidity XRPD (VH-XRPD) measurement, based on the XRPD diffraction angles disclosed for Form 1 and Form 2 of ceftolozane sulfate (as disclosed herein). Referring to DVS the isotherm plot in FIG. 5, the lower curve corresponds to ceftolozane sulfate in solid Form 2, and the upper curve is corresponds to ceftolozane sulfate in solid Form 1. The Y-axis of the DVS plot is change in mass. The X-axis of DVS plot refers to the percent relative humidity (RH) of the sample. Reference point 10 in FIG. 5 is the starting point of Form 2 in DVS experiment. The lower portion of the curve in FIG. 5 was obtained by measuring the change in mass of a ceftolozane sulfate sample in solid Form 2 while increasing relative humidity (RH) in the sample, starting at reference point 10 of the lower curve from reference point 10 (Form 2) and moving toward reference point 20 (Form 1). Based on the data collected, the ceftolozane sulfate in the sample converted from Form 2 to Form 1 when the sample was exposed to conditions between 50% RH (reference point 12) and 70% RH (reference point 15). Referring again to the lower curve in FIG. 5, ceftolozane sulfate in Form 1 is present in the sample from 70% RH to reference point 20, where the sample is ceftolozane sulfate is in crystalline Form 1. Referring to the upper curve in FIG. 5, from reference point 20 to reference point 30, the ceftolozane sulfate in the sample material remains as solid Form 1. From reference point 30 to around 20% RH (reference point 35 on the upper curve), the crystalline form of ceftolozane sulfate in the material transforms from Form 1 to Form 2. As the relative humidity of the sample was dropped below about 20% on the upper curve between reference point 30 and reference point 40 (0% RH), the ceftolozane sulfate became more amorphous, with some residual Form 2 remaining at reference point 40. […] Hygroscopicity of ceftolozane sulfate, Form 2 was assessed using the SMS DVS Intrinsic moisture sorption analyzer equipped with a calibrated Rotronic probe. […]

Data set [2] in a line: Melting point experiment (SRS Optimelt), thermal decomposition. It is filed as physicochemical. Conditions: scan from 100° C. to 400° C.; decomposed prior to melting. The protocol:
Melting point experiment was performed for ceftolozane sulfate form 2 using the SRS Optimelt melting point apparatus. SRS-certified vanillin and phenacetin were used to verify the system performance. The temperature scan from 100° C. to 400° C. was performed for ceftolozane sulfate. The material decomposed prior to melting. The decomposition, as indicated by the distinct change in color, appeared to commence at about 170° C.

Data set [3] is classed as physicochemical. As for the experimental part: Thermo Gravimetric Analysis (TGA) experiments were performed on a TA Instruments Discovery Series TGA. The calibration for temperature was carried out using certified indium. Typically, 3-15 mg of a sample was flattened into sealed aluminum pans. Data was acquired for samples with and without a pinhole. For samples with a pinhole, once crimped and sealed, the auto-sampler punched the lid of the sample with its internal puncher right before analysis of the sample. Samples were heated at 20° C./min from 30° C. to 400° C. Dry nitrogen was purged into the system during the experiment at a rate of 50 ml/min. The software used to control the instrument was TRIOS Explorer Software v5.3.0.75. TRIOS software v2.40.1838 or v2.04.04563 was used for data analysis.
Thermogravimetric analysis (TGA) and differential scanning calorimetry (DSC) thermograms are shown in FIG. 3 and FIG. 4, respectively. […] The subsequent exotherm in the thermogram is indicative of decompostion that is consistent with the observation in the melting point experiment.

Consider `Cn1c(N)c(NC(=O)NCCN)c[n+]1CC1=C(C(=O)O)N2C(=O)[C@@H](NC(=O)/C(=N\OC(C)(C)C(=O)O)c3nsc(N)n3)[C@H]2SC1` [ceftolozane sulfate Form 2], for which the hygroscopicity entry in data set [1] (RH 0 to 90%) was “hygroscopic”. For the same compound, the “total uptake of water” value in data set [1] (at 90% relative humidity, RH 0 to 90%) is listed as 23%. The “reversible hysteresis, water” value in data set [1] (between 0% and 90% relative humidity) was “around 23 % w/w”. Moreover, the “relative humidity below which the solid became more amorphous” value in data set [1] (decreasing RH to 0%, some residual Form 2) is “below 20%”. Moreover, the “temperature at which decomposition commenced (change in color)” value in data set [2] was “about 170 °C”. In addition, the “temperature beyond which degradation likely occurs” value in data set [3] is > 181 °C.
